Results taken from the NIST ThermoML archive (doi:10.1021/acs.jced.7b00135).
“And” between values parts separate entries of the source, which are not always exact repeats. Equal entries are not always repeated.

Assays:
[1] = wn = mass fraction of the nth substance listed; conditions: 100 kPa, Liquid; for viscosity: Capillary tube (Ostwald / Ubbelohde) method; for mass density: Vibrating tube method
[2] = Liquid, Closed cell (Static) method

O=S(=O)([N-]S(=O)(=O)C(F)(F)F)C(F)(F)F.[Li+] [lithium bis((trifluoromethyl)sulfonyl)amide] + O
[1]
Conditions	mass density, 298.15 K [kg/m3]	mass density, 323.15 K [kg/m3]	mass density, 348.15 K [kg/m3]	mass density, 373.15 K [kg/m3]	viscosity, 298.15 K [mPa·s]	viscosity, 323.15 K [mPa·s]	viscosity, 348.15 K [mPa·s]	viscosity, 373.15 K [mPa·s]
w1 = 0.2739	1160	1148	1131	1109	1.54	0.88	0.59	0.48
w1 = 0.4871	1325	1304	1282	1258	2.74	1.5	1	0.68
w1 = 0.6633	1493	1467	1440	1401	5.34	2.83	1.82	1.54
w1 = 0.8024	1654	1624	1598	1557	18.23	8.75	5.2	3.42

O [water]
[2]
Conditions	vapor or sublimation pressure
274.15 K	0.661 kPa and 0.657 kPa
278.15 K	0.873 kPa
279.48 K	0.953 kPa
283.15 K	1.228 kPa
286.16 K	1.508 kPa
291.39 K	2.094 kPa
293.14 K	2.337 kPa
293.15 K	2.339 kPa
296.31 K	2.839 kPa
296.32 K	2.834 kPa
298.81 K	3.288 kPa
301.37 K	3.827 kPa
303.15 K	4.247 kPa
303.57 K	4.36 kPa
307.73 K	5.507 kPa
308.26 K	5.666 kPa
312.87 K	7.275 kPa
313.07 K	7.345 kPa
313.15 K	7.385 kPa
314.62 K	7.977 kPa
318.13 K	9.585 kPa and 9.578 kPa
322.99 K	12.26 kPa
323.1 K	12.32 kPa
323.15 K	12.35 kPa
323.17 K	12.36 kPa
328.14 K	15.75 kPa
328.88 K	16.31 kPa
333.15 K	20.06 kPa and 19.95 kPa
343.15 K	31.28 kPa and 31.2 kPa
353.15 K	47.45 kPa and 47.41 kPa
363.15 K	70.21 kPa and 70.18 kPa
373.15 K	101.42 kPa and 101.42 kPa
383.15 K	143.29 kPa and 143.38 kPa
393.15 K	198.75 kPa and 198.67 kPa
403.15 K	270.22 kPa and 270.28 kPa
413.15 K	361.64 kPa and 361.54 kPa
423.15 K	476.33 kPa and 476.17 kPa
433.15 K	618.34 kPa and 618.24 kPa
443.15 K	792.15 kPa and 792.19 kPa
453.15 K	1002.7 kPa and 1002.8 kPa
463.15 K	1255.2 kPa and 1255.2 kPa
468.15 K	1398.9 kPa
470.15 K	1459.7 kPa
471.15 K	1491 kPa and 1490.9 kPa
